Key:
serum TNF-α = assay: Mouse LPS-induced serum TNF-α inhibition; type: in vivo; conditions: po, read-out: Mouse LPS-induced serum TNF-α inhibition (ED50, mg/kg, p.o.)
Method: Compounds were tested in this animal model according to previously described methods (Corral et al., 1996, Mol. Med., 2:506-515). Mouse LPS-induced serum TNF-α inhibition (ED50, mg/kg, p.o.) = 0.05 for Compound A.

LTB4 = assay: fMLF-induced LTB4 production in neutrophils; type: cell-based; conditions: Neutrophil; human neutrophils; 1 µM fMLF
Method: N-formyl-methionine-leucine-phenylalanine (fMLF) is a bacterially derived peptide that activates neutrophils to rapidly degranulate, migrate, adhere to endothelial cells, and release leukotriene LTB4, a product of arachidonic acid metabolism and itself a neutrophil chemoattractant. Compounds were tested for the ability to block fMLF-induced neutrophil LTB4 production as previously described (Hatzelmann and Schudt, 2001, J. Pharm. Exp. Ther., 297:267-279), with the following modifications. Neutrophils were isolated as described above and resuspended in phosphate-buffered saline without calcium or magnesium (BioWhittaker) containing 10 mM HEPES pH 7.2 and plated in 96-well tissue culture plates at a concentration of 1.7 x 10^6 cells/well. Cells were treated with 50 µM thimerosal (Sigma)/1 mM CaCl2/1 mM MgCl2 for 15 minutes at 37°C 5% CO2, then treated with compounds at 1000, 200, 40, 8, 1.6, 0.32, 0.064, and 0 nM in a final DMSO concentration of 0.01 % in duplicate for 10 minutes. Neutrophils were stimulated with 1 µM fMLF for 30 minutes, then lysed by the addition of methanol (20% final concentration) and frozen in a dry ice/isopropanol bath for 10 minutes. Lysates were stored at -70°C until the LTB4 content was measured by competitive LTB4 ELISA (R&D Systems).

bovine PDE1 = assay: PDE1 enzyme assay; type: biochemical
cAMP = assay: PGE2-induced cAMP elevation in human neutrophils; type: cell-based; conditions: Neutrophil
Method: Prostaglandin E2 (PGE2) binds to prostanoid receptors on monocytes, T cells and other leukocytes and consequently elevates intracellular cAMP levels, resulting in inhibition of cellular responses. The combination of PGE2 and a PDE4 inhibitor synergistically elevates cAMP levels in these cell types, and the elevation of cAMP in PBMC caused by PDE4 inhibitors in the presence of PGE2 is proportional to the inhibitory activity of that PDE4 inhibitor. Intracellular cAMP was measured in human PBMC as follows. PBMC were isolated as described above and plated in 96-well plates at 1 x 10^6 cells per well in RPMI-1640. The cells were pre-treated with compounds at 100, 10, 1, 0.1, 0.01, and 0 µM in a final concentration of 2% DMSO in duplicate at 37°C in a humidified incubator at 5% CO2 for one hour. The cells were then stimulated with PGE2 (10µM) (Sigma) for 1h. The cells were lysed with HCl, 0.1 N final concentration to inhibit phosphodiesterase activity and the plates were frozen at -20°C. The cAMP produced was measured using cAMP (low pH) Immunoassay kit (R&D Systems).
Elevation of cAMP in human neutrophils was measured as follows. PBMC were removed from source leukocytes (Sera-Tec Biologicals) by centrifugation on Ficoll-Paque Plus (Amersham Pharmacia). […]

TNF-α = assay: LPS-induced TNF-α production from human PBMC; type: cell-based; conditions: LPS 100 ng/ml
Method: Lipopolysaccharide (LPS) is an endotoxin produced by gram-negative bacteria such as E. coli which induces production of many pro-inflammatory cytokines, including TNF-α. In peripheral blood mononuclear cells (PBMC), the TNF-α produced in response to LPS is derived from monocytes, which comprise approximately 5-20% of the total PBMC. Compounds were tested for the ability to inhibit LPS-induced TNF-α production from human PBMC as previously described (Muller et al., 1996, J. Med. Chem., 39:3238). PBMC from normal donors were obtained by Ficoll Hypaque (Pharmacia, Piscataway, NJ, USA) density centrifugation. Cells were cultured in RPMI (Life Technologies, Grand Island, NY, USA) supplemented with 10% AB± human serum (Gemini Bio-products, Woodland, CA, USA), 2 mM L-glutamine, 100 U/ml penicillin, and 100 µg/ml streptomycin (Life Technologies).
PBMC (2 x 10^5 cells) were plated in 96-well flat-bottom Costar tissue culture plates (Coming, NY, USA) in triplicate. Cells were stimulated with LPS (Sigma, St. Louis, MO, USA) at 100 ng/ml in the absence or presence of compounds. Compounds (Celgene Corp., Warren, NJ, USA) were dissolved in DMSO (Sigma) and further dilutions were done in culture medium immediately before use. The final DMSO concentration in all samples was 0.25%. Compounds were added to cells one hour before LPS stimulation. […]

[1] = tested on: subjects with moderate to severe plaque-type psoriasis; assay: Phase 2 randomized double-blind placebo-controlled study in moderate to severe plaque-type psoriasis; type: in vivo, human
Method: This phase 2, multicenter, randomized, double-blind, placebo-controlled, parallel-group, dose-comparison study evaluated the efficacy and safety of Compound A in subjects with moderate to severe plaque-type psoriasis who were candidates for systemic therapy.
This study included a 12-week treatment phase followed by a 4-week observational follow-up phase. A total of 260 subjects were randomized to receive Compound A 20 mg BID, Compound A 20 mg QD, or placebo for 12 weeks. The primary endpoint for this study was the proportion of subjects treated with Compound A who achieved a 75% reduction in Psoriasis Area and Severity Index score ("PASI-75") at week 12/last treatment in reference to the baseline visit. Last treatment is defined as the last PASI assessment completed during the 12-week treatment phase.

[2] = 20 mg BID, week 12/last treatment

CCOc1cc(C(CS(C)(=O)=O)N2C(=O)c3cccc(NC(C)=O)c3C2=O)ccc1OC (single isomer, unassigned; (+)) [Compound A, (+)-2-[1-(3-ethoxy-4-methoxyphenyl)-2-methylsulfonylethyl]-4-acetylaminoisoindoline-1,3-dione]
ED50 (serum TNF-α): 0.05 mg/kg | IC50 (LTB4): 2.48 nM | PDE1 (% inhib at 10 µM) (bovine PDE1; 10 µM): 23% | PDE Specificity Ratio PDE4/PDE1 (bovine PDE1; from above data): >500 fold | EC50 (cAMP): 4570 nM | IC50 (TNF-α): 77 nM | study drug-related serious adverse events ([1]; 20 mg BID or 20 mg QD for 12 weeks): No study drug-related serious adverse events | mean decrease in PASI from baseline [1, 2]: 52% | proportion of subjects who achieved PASI-50 [1, 2]: 57% | proportion of subjects who achieved PASI-90 [1, 2]: 14% | proportion of subjects who achieved a PASI-75 ([1]; 20 mg BID, week 12/last treatment, P=0.023 vs placebo): 24% | tolerability and safety ([1]; 12 weeks of treatment): well tolerated and safe

— EP2276483B1, “SOLID FORMS COMPRISING (+)-2-[1-(3-ETHOXY-4-METHOXYPHENYL)-2-METHYLSULFONYLETHYL]-4-ACETYLAMINOISOINDOLINE-1,3-DIONE, COMPOSITIONS THEREOF, AND USES THEREOF” (CELGENE CORPORATION, priority 2008, dated 2009)
